# Test results as given in PubChem BioAssay AID1259407 (Chemical Carcinogenesis Research Information System (CCRIS), 2018).
# Active and inactive are the calls of the source. No rule for the calls is given here.
# Test system: CCRIS mutagenicity, Ames/micronucleus/aberration tests
# Test: CCRIS mutagenicity studies
smiles,measurement,setting,value
C1O[C@@H]1[C@@H]1CO1,mutagenic call,"Test System: AMES SALMONELLA TYPHIMURIUM, Strain/Indicator: TA1535, Metabolic Activation: RAT, LIVER, S-9, Method: PREINCUBATION",active; positive
same,mutagenic call,"Test System: AMES SALMONELLA TYPHIMURIUM, Strain/Indicator: TA1535, Metabolic Activation: RAT, LIVER, S-9, Method: STANDARD PLATE",active; positive
same,mutagenic call,"Test System: AMES SALMONELLA TYPHIMURIUM, Strain/Indicator: TA1537, Metabolic Activation: HAMSTER, LIVER, S-9, AROCLOR 1254, Method: PREINCUBATION",inactive; negative
same,mutagenic call,"Test System: AMES SALMONELLA TYPHIMURIUM, Strain/Indicator: TA1537, Metabolic Activation: HAMSTER, LIVER, S-9, AROCLOR 1254, Method: STANDARD PLATE",inactive; negative
same,mutagenic call,"Test System: AMES SALMONELLA TYPHIMURIUM, Strain/Indicator: TA1537, Metabolic Activation: HAMSTER, LIVER, S-9, Method: PREINCUBATION",inactive; negative
same,mutagenic call,"Test System: AMES SALMONELLA TYPHIMURIUM, Strain/Indicator: TA1537, Metabolic Activation: HAMSTER, LIVER, S-9, Method: STANDARD PLATE",inactive; negative
same,mutagenic call,"Test System: AMES SALMONELLA TYPHIMURIUM, Strain/Indicator: TA1537, Metabolic Activation: MOUSE, LIVER, S-9, AROCLOR 1254, Method: PREINCUBATION",inactive; negative
same,mutagenic call,"Test System: AMES SALMONELLA TYPHIMURIUM, Strain/Indicator: TA1537, Metabolic Activation: MOUSE, LIVER, S-9, AROCLOR 1254, Method: STANDARD PLATE",inactive; negative
same,mutagenic call,"Test System: AMES SALMONELLA TYPHIMURIUM, Strain/Indicator: TA1537, Metabolic Activation: MOUSE, LIVER, S-9, Method: PREINCUBATION",inactive; negative
same,mutagenic call,"Test System: AMES SALMONELLA TYPHIMURIUM, Strain/Indicator: TA1537, Metabolic Activation: MOUSE, LIVER, S-9, Method: STANDARD PLATE",inactive; negative
same,mutagenic call,"Test System: AMES SALMONELLA TYPHIMURIUM, Strain/Indicator: TA1537, Metabolic Activation: NONE, Method: PREINCUBATION",inactive; negative
same,mutagenic call,"Test System: AMES SALMONELLA TYPHIMURIUM, Strain/Indicator: TA1537, Metabolic Activation: NONE, Method: STANDARD PLATE",inactive; negative
same,mutagenic call,"Test System: AMES SALMONELLA TYPHIMURIUM, Strain/Indicator: TA1537, Metabolic Activation: RAT, LIVER, S-9, AROCLOR 1254, Method: PREINCUBATION",inactive; negative
same,mutagenic call,"Test System: AMES SALMONELLA TYPHIMURIUM, Strain/Indicator: TA1537, Metabolic Activation: RAT, LIVER, S-9, Method: PREINCUBATION",inactive; negative
same,mutagenic call,"Test System: AMES SALMONELLA TYPHIMURIUM, Strain/Indicator: TA1537, Metabolic Activation: RAT, LIVER, S-9, Method: STANDARD PLATE",inactive; negative
same,mutagenic call,"Test System: AMES SALMONELLA TYPHIMURIUM, Strain/Indicator: TA1538, Metabolic Activation: HAMSTER, LIVER, S-9, AROCLOR 1254, Method: PREINCUBATION",inactive; negative
same,mutagenic call,"Test System: AMES SALMONELLA TYPHIMURIUM, Strain/Indicator: TA1538, Metabolic Activation: HAMSTER, LIVER, S-9, AROCLOR 1254, Method: STANDARD PLATE",inactive; negative
same,mutagenic call,"Test System: AMES SALMONELLA TYPHIMURIUM, Strain/Indicator: TA1538, Metabolic Activation: HAMSTER, LIVER, S-9, Method: PREINCUBATION",inactive; negative
same,mutagenic call,"Test System: AMES SALMONELLA TYPHIMURIUM, Strain/Indicator: TA1538, Metabolic Activation: HAMSTER, LIVER, S-9, Method: STANDARD PLATE",inactive; negative
same,mutagenic call,"Test System: AMES SALMONELLA TYPHIMURIUM, Strain/Indicator: TA1538, Metabolic Activation: MOUSE, LIVER, S-9, AROCLOR 1254, Method: PREINCUBATION",inactive; negative
same,mutagenic call,"Test System: AMES SALMONELLA TYPHIMURIUM, Strain/Indicator: TA1538, Metabolic Activation: MOUSE, LIVER, S-9, AROCLOR 1254, Method: STANDARD PLATE",inactive; negative
same,mutagenic call,"Test System: AMES SALMONELLA TYPHIMURIUM, Strain/Indicator: TA1538, Metabolic Activation: MOUSE, LIVER, S-9, Method: PREINCUBATION",inactive; negative
same,mutagenic call,"Test System: AMES SALMONELLA TYPHIMURIUM, Strain/Indicator: TA1538, Metabolic Activation: MOUSE, LIVER, S-9, Method: STANDARD PLATE",inactive; negative
same,mutagenic call,"Test System: AMES SALMONELLA TYPHIMURIUM, Strain/Indicator: TA1538, Metabolic Activation: NONE, Method: PREINCUBATION",inactive; negative
same,mutagenic call,"Test System: AMES SALMONELLA TYPHIMURIUM, Strain/Indicator: TA1538, Metabolic Activation: NONE, Method: STANDARD PLATE",inactive; negative
same,mutagenic call,"Test System: AMES SALMONELLA TYPHIMURIUM, Strain/Indicator: TA1538, Metabolic Activation: RAT, LIVER, S-9, AROCLOR 1254, Method: PREINCUBATION",inactive; negative
same,mutagenic call,"Test System: AMES SALMONELLA TYPHIMURIUM, Strain/Indicator: TA1538, Metabolic Activation: RAT, LIVER, S-9, Method: PREINCUBATION",inactive; negative
same,mutagenic call,"Test System: AMES SALMONELLA TYPHIMURIUM, Strain/Indicator: TA1538, Metabolic Activation: RAT, LIVER, S-9, Method: STANDARD PLATE",inactive; negative
same,mutagenic call,"Test System: E. COLI, Strain/Indicator: WP2 UVRA, Metabolic Activation: HAMSTER, LIVER, S-9, AROCLOR 1254, Method: STANDARD PLATE",inactive; negative
same,mutagenic call,"Test System: E. COLI, Strain/Indicator: WP2 UVRA, Metabolic Activation: HAMSTER, LIVER, S-9, Method: PREINCUBATION",inactive; negative
same,mutagenic call,"Test System: E. COLI, Strain/Indicator: WP2 UVRA, Metabolic Activation: MOUSE, LIVER, S-9, AROCLOR 1254, Method: STANDARD PLATE",inactive; negative
same,mutagenic call,"Test System: E. COLI, Strain/Indicator: WP2 UVRA, Metabolic Activation: MOUSE, LIVER, S-9, Method: STANDARD PLATE",inactive; negative
same,mutagenic call,"Test System: E. COLI, Strain/Indicator: WP2 UVRA, Metabolic Activation: NONE, Method: STANDARD PLATE",inactive; negative
same,mutagenic call,"Test System: E. COLI, Strain/Indicator: WP2 UVRA, Metabolic Activation: RAT, LIVER, S-9, AROCLOR 1254, Method: PREINCUBATION",inactive; negative
same,mutagenic call,"Test System: E. COLI, Strain/Indicator: WP2 UVRA, Metabolic Activation: RAT, LIVER, S-9, Method: PREINCUBATION",inactive; negative
same,mutagenic call,"Test System: E. COLI, Strain/Indicator: WP2 UVRA, Metabolic Activation: RAT, LIVER, S-9, Method: STANDARD PLATE",inactive; negative
